Experimental data taken from patent US10143638B2, “Method of treating skin with ingenol mebutate” (LEO Laboratories Limited, priority 2009, dated 2018).

How the values were obtained:
[1] = tested on: dermal fibroblasts; assay: Hyaluronan synthesis by dermal fibroblasts (Hyaluronic Acid Quantitative Test Kit); type: cell-based, human
Description: (§1) A normal adult skin biopsy (6 mm) was obtained (n=1), with informed consent, from an individual attending the Oral Surgery Clinic, School of Dentistry, Wales College of Medicine, Cardiff. Following the application of a local anaesthetic, the dermal biopsy was collected and adult dermal fibroblast cultures established by single cell suspension technique, following enzymic degradation of the specimen. This technique has previously been reliably used to establish viable primary cultures of both oral and dermal fibroblasts in vitro (Cook et al, 2000; Stephens et al, 2001; 2003). Dermal fibroblasts were cultured in Fibroblast-Serum Containing Medium, containing Dulbecco's Modified Eagle's Medium (DMEM), supplemented with L-glutamine (2 mM), antibiotics (100 U/ml) penicillin G sodium, […] streptomycin sulphate and 0.25 μg/ml amphotericin B) and 10% foetal calf serum (all purchased from Invitrogen Ltd., Paisley, U.K.). Dermal fibroblast cultures were maintained at 37° C., in a 5% CO2/95% air atmosphere, with the culture medium being changed every 2-3 days. Dermal fibroblasts were used between) passage 7-17, for all experiments.
Following trypsinization, dermal fibroblasts were seeded in 24-well tissue culture plates in PEP005-free, Fibroblast-Serum Containing Medium (1 ml), at a cell density of 2.5×10^4 cell/well. Dermal fibroblasts were maintained at 37° C., in a 5% CO2/95% air atmosphere, for 48 h, prior to maintenance in serum-free, Fibroblast-Serum Containing Medium (1 ml), for a further 48 h. At this stage, the serum-free, culture medium was replaced with Fibroblast-Serum Containing Medium (600 μl), containing 0 μg/ml, 0.01 μg/ml, 0.1 μg/ml, 1 μg/ml, 10 μg/ml or 100 μg/ml PEP005, +/−TGF-β1 (10 ng/ml) (three culture wells per PEP005 concentration). A control was also established, consisting of cells in serum-free, Fibroblast-Serum Containing Medium, containing 1% DMSO. The dermal fibroblasts were maintained at 37° C., in a 5% CO2/95% air atmosphere, for 24 h or 72 h, prior to culture medium removal. Hyaluronan synthesis in the collected culture media was quantified, using a Hyaluronic Acid Quantitative Test Kit (Corgenix U.K. Ltd., Cambridgeshire, U.K.), which utilizes a naturally occurring bovine binding protein to hyaluronan. Supernatants were assayed, as per manufacturer's instructions, and optical density measured using a spectrophotometer at 450 nm. Hyaluronan concentrations were determined by comparing the absorbance of the sample against a reference curve prepared from the reagent blank and standards. Each experiment was performed on three separate occasions.

[2] = tested on: HAS3; assay: HAS3 gene expression by dermal fibroblasts (qPCR); type: cell-based, human
Description: as §1
Following trypsinization, dermal fibroblasts were seeded in 24-well tissue culture plates, in PEP005-free, Fibroblast-Serum Containing Medium (1 ml), at a cell density of 2.5×10^4 cell/well. Dermal fibroblasts were maintained at 37° C., in a 5% CO2/95% air atmosphere, overnight. At this stage, the culture medium was replaced with Fibroblast-Serum Containing Medium (600 μl), containing 0 μg/ml, 0.01 μg/ml, 0.1 μg/ml, 1 μg/ml, 10 μg/ml or 100 μg/ml PEP005, +/−TGF-β1 (10 ng/ml) (three culture wells per PEP005 concentration). A control was also established, consisting of cells in Fibroblast-Serum Containing Medium, containing 1% DMSO. The dermal fibroblasts were maintained at 37° C., in a 5% CO2/95% air atmosphere, for 24 h or 72 h, prior to washing in PBS (3×1 ml) and Trizol® Reagent (250 μl) added to the cells, for 5 min at room temperature, to induce cell lysis. RNA was extracted by the phenol-chloroform method, as described above, while a cDNA library was generated via random hexamer RT, as described above. RNA (1 μg) was added to 100 µM random hexamer (1 μl), 5×RT Buffer (4 μl), 2.5 mM Deoxynucleoside Triphosphates (dNTPs, 5 μl), 2 μl DTT and Nuclease-Free Water, were added to the reaction (total volume, 20 μl). To denature the RNA, reaction tubes were placed in a GeneAmp PCR System 9700 (Applied Biosystems, Cheshire, U.K.) and heated for 5 min/95° C., prior to cooling to 4° C. Superscript (1 μl) and RNAsin® Ribonuclease Inhibitor (1 μl, Promega, Hampshire, U.K.) were added to each tube, and the tubes subjected to […] at 20° C. for 10 min, 42° C. for 1 h and 95° C. for 5 min, prior to storage at 4° C., until required. As a negative control, RT was also performed, with Nuclease-Free Water replacing the RNA sample.
qPCR was performed, as described above, with the probe and primers for HAS1, HAS2 and HAS3 (target genes) and the 18s ribosomal RNA (reference gene), designed and supplied by Applied Biosystems. PCR was performed in a final volume of 20 μl/sample, with each reaction mix consisting of cDNA (1 μl), target gene primers and probe (1 μl), Taqman® FAST Universal PCR Master Mix (10 μl, Applied Biosystems), and Nuclease-Free Water (8 μl). PCR amplification was performed, using an initial cycle of 95° C. for 1 s, followed by 40 cycles of 60° C. for 20 s. A cDNA-free control was also included. Again, the comparative CT method was used for relative quantification of gene expression. Each experiment was performed on three separate occasions.

[3] = Stability of PEP005/DMSO stock solution; type: physicochemical; conditions: 10 mg/ml in DMSO, stored at 4° C.
Procedure: PEP005, obtained from Peplin in 20 mg batches, was stored at 4° C. When required, the PEP005 was solubilized in dimethyl sulphoxide (DMSO, >99.9%, Sigma Chemical Company, Dorset, U.K.), at a concentration of 10 mg/ml. […] Prior to use, the PEP005/DMSO stock solution was removed from 4° C. storage and warmed to room temperature. The required volumes of PEP005/DMSO were aliquoted into a poly-propylene vessel and the PEP005/DMSO diluted to the required concentration (typically 0.01 μg/ml, 0.1 μg/ml, 1 μg/ml, 10 μg/ml and 100 μg/ml) in Fibroblast-Serum Containing Medium (for dermal fibroblast cultures, Section 3.1), with fresh PEP005/culture medium solutions being prepared daily, at the various concentrations above, due to solution stability. Prior to discarding PEP005/culture medium solutions, at least two volumes of 0.1% sodium hydroxide (Sigma Chemical Company), in 95% ethanol/5% methanol (both from Thermo Fisher Scientific, Leicestershire, U.K.), was added to each solution, to deactivate.

For `C/C=C(/C)C(=O)O[C@H]1C(C)=C[C@]23C(=O)[C@@H](C=C(CO)[C@@H](O)[C@]12O)[C@H]1[C@@H](C[C@H]3C)C1(C)C` [PEP005, ingenol-3-angelate], the hyaluronan synthesis ([1]; PEP005 0.01-10 μg/ml, absence of TGF-β1, 24 h, compared to untreated controls) was “significant, stimulatory effect”, the hyaluronan synthesis ([1]; PEP005 0.01-100 μg/ml, absence of TGF-β1, 72 h, compared to untreated controls) was “significant, stimulatory effect” and the hyaluronan synthesis ([1]; PEP005 plus TGF-β1 (10 ng/ml), 24 h, compared to untreated controls and to PEP005 without TGF-β1) was “significant, synergistic effect”. The HAS3 expression ([2]; PEP005 0.01-100 μg/ml plus TGF-β1 (10 ng/ml), 72 h (p>0.05)) was “no significant effects”, the HAS3 expression ([2]; PEP005 0.01-100 μg/ml, absence of TGF-β1, 24 h, non-significant (p>0.05)) was “completely abolished” and the HAS3 expression ([2]; PEP005 0.1-10 μg/ml plus TGF-β1 (10 ng/ml), 24 h, down-regulation, non-significant (p>0.05)) was “barely detectable levels”. The HAS3 gene expression ([2]; PEP005 1-10 μg/ml, absence of TGF-β1, 72 h, non-significant (p>0.05)) was “up-regulation” and the “stability of PEP005/DMSO stock solution” value [3] was “stable for several months”.
